According to patent US8569241B2, “Composition for improving brain function and method for improving brain function” (Calpis Co., Ltd., priority 2009, dated 2013):

Assays:
Format in all cases: in vivo
[1] = tested on: scopolamine-induced amnesia; assay: Y-shaped maze test, spontaneous alternation behavior, scopolamine-induced amnesia; conditions: once orally 60 min before test, ddY mice
Procedure: Male mice (n=15 to 75) of the ddY strain (approximately 7-week old) were used, and they received food and water ad lib. Test substances used were 0.05 nmol/kg weight (0.1 μg/kg weight), 0.5 nmol/kg weight (1 μg/kg weight), 1.5 nmol/kg weight (3 μg/kg weight), 5 nmol/kg weight (10 μg/kg weight), 50 nmol/kg weight (100 μg/kg weight), and 500 nmol/kg weight (1000 μg/kg weight) of Asn-Ile-Pro-Pro-Leu-Thr-Gln-Thr-Pro-Val-Val-Val-Pro-Pro-Phe-Leu-Gln-Pro-Glu. The test substances were administered to the mice once orally 60 minutes before the execution of a Y-shaped maze test for evaluation of spontaneous alternation behavior. Further, 30 minutes before the execution of the Y-shaped maze test, 1 mg/kg weight of scopolamine was subcutaneously administered on the backs of the mice in order to induce brain dysfunction (dysmnesia and/or cognitive impairment) in the mice. In the Y-shaped maze test, a Y-shaped maze was used as an experimental device, in which the length of each arm was 40 cm, the height of the wall was 12 cm, the width of the floor was 3 cm, and the width of the upper part was 10 cm, and three arms were connected to each other at an angle of 120 degrees. Each of the mice was placed at the tip of any one of the arms of the Y-shaped maze, and then let go to freely explore in the maze for 8 minutes. The sequence of the arms each of the mice entered was recorded. The number of entries by each of the mice for each of the arms during the measurement time was counted to be the total number of entries. In the sequence, the combination in which three different arms were selected in succession (for example, with the three arms respectively called A, B, and C, if the sequence of the arms entered is ABCBACACB, the count is 4 inclusive of overlapping) was investigated, and the number of the count was used as the number of spontaneous alternation behavior. The percentage of spontaneous alternation behavior was calculated by dividing the number of spontaneous alternation behavior by a number obtained by subtracting 2 from the total number of entries, and multiplying a resultant number by 100. The percentage of spontaneous alternation behavior was used as an indicator. […] The measured values were expressed in the form of mean±standard error for each group. A significant difference between the control group and the scopolamine control group was calculated using Student's t-test. Further, a significant difference between the scopolamine control group and the NIPPLTQTPVVVPPFLQPE-administered groups was calculated using Dunnett's multiple comparison test after one-way analysis of variance.
Male mice (n=15 to 45) of the ddY strain (approximately 7-week old) were used, and they received food and water ad Iib. Test substances used were: 50 nmol/kg weight (100 μg/kg weight) of Asn-Ile-Pro-Pro-Leu-Thr-Gln-Thr-Pro-Val-Val-Val-Pro-Pro-Phe-Leu-Gln-Pro-Glu; 50 nmol/kg weight (120 μg/kg weight) of […]([…]); 50 nmol/kg weight (100 μg/kg weight) of Ile-Pro-Pro-Leu-Thr-Gln-Thr-Pro-Val-Val-Val-Pro-Pro-Phe-Leu-Gln-Pro-Glu (IPPLTQTPVVVPPFLQPE); 50 nmol/kg weight (100 μg/kg weight) of Asn-Ile-Pro-Pro-Leu-Thr-Gln-Thr-Pro-Val-Val-Val-Pro-Pro-Phe-Leu-Gln-Pro (NIPPLTQTPVVVPPFLQP) (SEQ ID NO: 18); and 50 nmol/kg weight (50 μg/kg weight) of Thr-Gln-Thr-Pro-Val-Val-Val-Pro-Pro-Phe (TQTPVVVPPF) (SEQ ID NO: 19). The test substances were administered to the mice once orally 60 minutes before the execution of a Y-shaped maze test for evaluation of spontaneous alternation behavior. Further, 30 minutes before the execution of the Y-shaped maze test, 1 mg/kg weight of scopolamine was subcutaneously administered on the backs of the mice in order to induce brain dysfunction (dysmnesia and/or cognitive impairment) in the mice. […]

[2] = tested on: scopolamine-induced amnesia; assay: as above; conditions: once orally 60 min before test, scopolamine 1 mg/kg s.c., ddY mice
memory maintenance = assay: novel object recognition test for evaluation of memory maintenance; conditions: Example 4, FIG. 4; 500 nmol/kg weight (1000 μg/kg weight), once orally 60 min before training trial; retention trial 48 hours later; ddY mice
Procedure: Male mice (n=14 to 15) of the ddY strain (approximately 7-week old) were used, and they received food and water ad lib. A test substance used was 500 nmol/kg weight (1000 μg/kg weight) of Asn-Ile-Pro-Pro-Leu-Thr-Gln-Thr-Pro-Val-Val-Val-Pro-Pro-Phe-Leu-Gln-Pro-Glu. The test substance was administered to the mice once orally 60 minutes before the execution of a novel object recognition test for evaluation of memory maintenance. In the novel object recognition test, a 30 cm x30 cm x30 cm box was used as an experimental device. For acclimation, each of the mice was placed in the experimental device with floor bedding for 5 minutes, and then allo the aminals to go around freely in the device. On the next day of the acclimation treatment, a training trial was performed. In the training trial, two among three kinds of objects were selected and disposed in the experimental device (the objects were arranged along the central line of the floor at positions 8 cm away from the walls on two sides, and the positions were designated as X1 and X2). […] In the training trial and the retention trial, the time (seconds) the mice spent exploring each object by approaching within 1 cm therefrom was measured (except the time when the mice were riding on the object). For each of the training trial and the retention trial, an exploration time ratio between the two objects was calculated. […]

[3] = Example 2, FIG. 2, 50 nmol/kg weight, scopolamine 1 mg/kg s.c., Dunnett's test vs scopolamine control
[4] = Example 6, FIG. 6, 500 nmol/kg weight, Student's t-test
[5] = Example 3, FIG. 3, 500 nmol/kg weight (1000 μg/kg weight), Dunnett's test

Sequence	prophylactic activity against amnesia (percentage of spontaneous alternation behavior) [1, 3]	prophylactic activity against amnesia (percentage of spontaneous alternation behavior) [2, 4]	further results
IPPLTQTPVVVPPFLQPE (Synthetic functional peptide) [Ile-Pro-Pro-Leu-Thr-Gln-Thr-Pro-Val-Val-Val-Pro-Pro-Phe-Leu-Gln-Pro-Glu]	had a prophylactic activity against amnesia		
LTQTPVVVPPFLQPE (Synthetic functional peptide) [Leu-Thr-Gln-Thr-Pro-Val-Val-Val-Pro-Pro-Phe-Leu-Gln-Pro-Glu]		had a prophylactic activity against amnesia	
NIPPLTQTPVVVPPFLQP (Synthetic comparative example) [Asn-Ile-Pro-Pro-Leu-Thr-Gln-Thr-Pro-Val-Val-Val-Pro-Pro-Phe-Leu-Gln-Pro]	did not show any prophylactic activity against amnesia		
NIPPLTQTPVVVPPFLQPE (Synthetic functional peptide) [Asn-Ile-Pro-Pro-Leu-Thr-Gln-Thr-Pro-Val-Val-Val-Pro-Pro-Phe-Leu-Gln-Pro-Glu]	had a prophylactic activity against amnesia		prophylactic activity against amnesia (percentage of spontaneous alternation behavior) ([1]; Example 1, FIG. 1, 0.05 nmol/kg weight to 500 nmol/kg weight (0.1 to 1000 μg/kg weight), scopolamine 1 mg/kg s.c. 30 min before, Dunnett's test): had a prophylactic activity against amnesia; memory strengthening activity (exploration time ratio of novel object) (memory maintenance): had a memory strengthening activity; prophylactic activity against amnesia (percentage of spontaneous alternation behavior) [2, 5]: had a prophylactic activity against amnesia
NIPPLTQTPVVVPPFLQPEVM (Synthetic functional peptide)	had a prophylactic activity against amnesia		
PLTQTPVVVPPFLQPE (Synthetic functional peptide) [Pro-Leu-Thr-Gln-Thr-Pro-Val-Val-Val-Pro-Pro-Phe-Leu-Gln-Pro-Glu]		had a prophylactic activity against amnesia	
PPLTQTPVVVPPFLQPE (Synthetic functional peptide) [Pro-Pro-Leu-Thr-Gln-Thr-Pro-Val-Val-Val-Pro-Pro-Phe-Leu-Gln-Pro-Glu]			prophylactic activity against amnesia (percentage of spontaneous alternation behavior) [2, 5]: had a prophylactic activity against amnesia
PVVVPPFLQPE (Synthetic functional peptide) [Pro-Val-Val-Val-Pro-Pro-Phe-Leu-Gln-Pro-Glu]		had a prophylactic activity against amnesia	
TQTPVVVPPF (Synthetic comparative example) [Thr-Gln-Thr-Pro-Val-Val-Val-Pro-Pro-Phe]	did not show any prophylactic activity against amnesia		
TQTPVVVPPFLQPE (Synthetic functional peptide) [Thr-Gln-Thr-Pro-Val-Val-Val-Pro-Pro-Phe-Leu-Gln-Pro-Glu]			prophylactic activity against amnesia (percentage of spontaneous alternation behavior) ([2]; Example 5, FIG. 5, 50 nmol/kg weight (80 μg/kg weight), Student's t-test): had a prophylactic activity against amnesia
VVVPPFLQPE (Synthetic functional peptide) [Val-Val-Val-Pro-Pro-Phe-Leu-Gln-Pro-Glu]		had a prophylactic activity against amnesia	
